Results taken from patent US6368621B1, “Preparation in particular for use as a medication and/or food supplement” (Peter Greither, priority 1999, dated 2002).

Experiment: Determining the Kpart value: distribution between n-octanol and aqueous tris hydrochloride
Format: physicochemical
Conditions: n-octanol / aqueous tris hydrochloride 20 mM, pH 7.4, 20° C.; for distribution coefficient Kpart, metal-free compound: spectrophotometry 220 to 340 nm; for distribution coefficient Kpart, iron complex [FeIII-(compound)3]: spectrophotometry 340 to 640 nm, 3:1 iron(III) complex of the compound
Description: A further factor which plays a role with the bio-availability of iron is the ability of the iron complexes to penetrate biological membranes. One of the possible indicators for this membrane permeation is Kpart. Kpart describes the ratio between the concentration of the compound in n-octanol to the concentration of the compound in the aqueous phase. Although the iron complex as well as its corresponding metal-free compound should be able to enter through the biomembrane, both should also have a certain degree of water solubility. In the course of the present invention the iron complexes preferably have Kpart values in a region between 0.02 and 6.0, preferred between 0.1 and 4.0 and even more preferred between 0.2 and 1.0. The metal-free complex preferably has Kpart values between 0.05 and 3.0, preferred between 0.1 and 2.0 and even more preferred between 0.2 and 1.0.
Determining the Kpart value:
Determined is the distribution in each case for the iron complex as well as for the corresponding metal-free compound between n-octanol and aqueous tris hydrochloride (20 mM, pH 7.4; tris: 2 amino-2-hydroxymethylpropane-1,3-diol). The concentration of the substances in the respective phase is measured at 20° C. by way of spectrophotometry. 5 ml of a 10^−4M aqueous solution of iron complex and metal-free compound are mixed with 5 ml of n-octanol for one minute. The aqueous n-octanol mixture arising with this is centrifuged at 1,000 G for 30 seconds. The two resulting phases are separated from one another for evaluating the concentration. The metal-free compound is measured in a region of 220 to 340 nanometers whilst for evaluating the concentration of the corresponding iron complex a region between 340 and 640 nanometers is selected. These regions also apply to the 3:1 maltol-iron(III)-complex.

distribution coefficient Kpart, metal-free compound	distribution coefficient Kpart, iron complex [FeIII-(compound)3]	SMILES
0.44	0.10	Cn1cccc(O)c1=O [3-hydroxy-1-methylpyride-2-one]
0.66	0.5	Cc1occc(=O)c1O [3-hydroxy-2-methyl-4 pyrone]
0.52	1.06	CCn1cccc(O)c1=O [1-ethyl-3-hydroxypyri-2-one]
